According to patent publication US7022343B2, “Controlled release of anti-arrhythmic agents” (Genzyme Corporation, priority 2000, dated 2006):
Where a name gives a salt, the structure may show the parent alone.

Key:
[1] = Amiodarone concentration in dog right atrium under FOCALSEAL-S hydrogels (Example 9); type: in vivo; settings: right atrial appendage, right ventricle, left atrial appendage, left atrial free wall, distal lung
[2] = Tissue analysis of drug content under FOCALSEAL-S gels on porcine heart; type: in vivo; settings: lung tissue adjacent to gel-treated sites; pig, seven days
[3] = FOCALSEAL-L; FIG. 2A / FIG. 2B

CCCCc1oc2ccccc2c1C(=O)c1cc(I)c(OCCN(CC)CC)c(I)c1 [amiodarone, Amiodarone hydrochloride]
other tissue harvested showing a detectable level of amiodarone [1]: None
concentration at 7 days [2]: ≤ 17000 ng/g
change in pH and modulus as concentration is increased [3]: decrease in pH and modulus
